We go through six compounds from article PMC9154192 (PLoS Biology, 2022).

≈ marks a conversion by molar mass, not a printed value. Where two headings read alike, the source gives them in different places. Where only a bound is given, the exact number is not on record here.

Data set [1] relates to M. tuberculosis H37Ra. The experiment in a line: microbe, parasite or virus in culture. In kind it is cell-based, Mycobacterium tuberculosis.
The test system of data set [2] is M. tuberculosis H37Rv. In words: microbe, parasite or virus in culture. The class given is cell-based, Mycobacterium tuberculosis. Conditions: for SI (CC50/MIC): ratio of CC50 for L929 fibroblasts to MIC for strain H37Rv.
Data set [3] relates to L929 murine fibroblasts. The experiment in a line: in vitro. The class given is cell-based. Conditions: L929, MTT assay (Table S1). As to the method: (§1) A549 human pulmonary epithelial cells (KCLB 10185), human embryonic kidney (HEK) 293 cells (KCLB 21573), human THP-1 leukemia cells (KCLB 40202), human neuroblastoma SH-SY5Y cells (KCLB 22266), Murine Raw 264.7 macrophages (KCLB 40071), and L929 murine fibroblasts (KCLB 10001) were purchased from the KCLB (Seoul, Korea). Cytotoxicity testing was performed using the MTT assay and the WST-1 cell viability assay as previously described.
(Formazan colour is commonly taken as a measure of viable cells.)

Data set [4] concerns Murine Raw 264.7 macrophages. In words: in vitro. The class given is cell-based. Conditions: RAW, MTT assay (Table S1). On the procedure:
as §1

Data set [5] has as its system A549 cell line. Conditions: cited from earlier work.
Data set [6] deals with M. neoaurum. The experiment in a line: microbe, parasite or virus in culture. In kind it is cell-based, Mycobacterium neoaurum. Conditions: Mycolicibacterium neoaurum.
Data set [7] deals with M. phlei. The experiment in a line: microbe, parasite or virus in culture. In kind it is cell-based, Mycobacterium phlei. Conditions: Mycolicibacterium phlei.
Data set [8] concerns M. phocaicum. In words: microbe, parasite or virus in culture. In kind it is cell-based, Mycobacterium phocaicum. Conditions: Mycolicibacterium phocaicum.
Data set [9] relates to M. bovis. In words: microbe, parasite or virus in culture. The class given is cell-based. Conditions: Mycobacterium tuberculosis variant bovis.
Data set [10] deals with M. xenopi. In words: microbe, parasite or virus in culture. Conditions: Mycobacterium xenopi. In kind it is cell-based.
In data set [11] the test system is M. gordonae. The experiment in a line: microbe, parasite or virus in culture. In kind it is cell-based. Conditions: Mycobacterium gordonae.
The subject of data set [12] is M. aubagnense. In words: microbe, parasite or virus in culture. The class given is cell-based, Mycobacterium aubagnense. Conditions: Mycolicibacterium aubagnense.
In data set [13] the test system is M. conceptionense. In words: microbe, parasite or virus in culture. The class given is cell-based, Mycobacterium conceptionense. Conditions: Mycolicibacterium senegalense.
Data set [14] relates to clinically isolated MDR, XDR, and TDR M. tuberculosis strains. The experiment in a line: microbe, parasite or virus in culture. In kind it is cell-based. Conditions: Mycobacterium tuberculosis.
Data set [15] deals with M. colombiense. In words: microbe, parasite or virus in culture. In kind it is cell-based. Conditions: Mycobacterium colombiense.
Data set [16] relates to M. marinum. In words: microbe, parasite or virus in culture. The class given is cell-based. Conditions: Mycobacterium marinum.
Data set [17] relates to M. chitae. The experiment in a line: microbe, parasite or virus in culture. Conditions: Mycolicibacterium chitae. In kind it is cell-based, Mycobacterium chitae.
The subject of data set [18] is M. arupense. The experiment in a line: microbe, parasite or virus in culture. The class given is cell-based, Mycobacterium arupense. Conditions: Mycolicibacter arupensis.
The test system of data set [19] is M. goodie. The experiment in a line: microbe, parasite or virus in culture. Conditions: Mycobacterium. In kind it is cell-based.
The subject of data set [20] is M. peregrinum. The experiment in a line: microbe, parasite or virus in culture. The class given is cell-based, Mycobacterium peregrinum. Conditions: Mycolicibacterium peregrinum.
Data set [21] relates to M. szulgai. In words: microbe, parasite or virus in culture. The class given is cell-based. Conditions: Mycobacterium szulgai.
Data set [22] deals with M. abscessus. In words: microbe, parasite or virus in culture. Conditions: Mycobacteroides abscessus. The class given is cell-based, Mycobacterium abscessus.
In data set [23] the test system is M. heraklionease. In words: microbe, parasite or virus in culture. In kind it is cell-based. Conditions: Mycobacterium.
Data set [24] concerns M. intracellulare. In words: microbe, parasite or virus in culture. In kind it is cell-based. Conditions: Mycobacterium intracellulare.
Data set [25] relates to M. massiliense. In words: microbe, parasite or virus in culture. Conditions: Mycobacteroides abscessus. The class given is cell-based, Mycobacterium massiliense.
Data set [26] deals with M. smegmatis. In words: microbe, parasite or virus in culture. In kind it is cell-based, Mycobacterium smegmatis. Conditions: Mycolicibacterium smegmatis.
The subject of data set [27] is M. avium. In words: microbe, parasite or virus in culture. In kind it is cell-based. Conditions: Mycobacterium avium.
Data set [28] has as its system M. kansasii. The experiment in a line: microbe, parasite or virus in culture. In kind it is cell-based. Conditions: Mycobacterium kansasii.
In data set [29] the test system is M. fortuitum. The experiment in a line: microbe, parasite or virus in culture. In kind it is cell-based, Mycobacterium fortuitum. Conditions: Mycolicibacterium fortuitum.
In data set [30] the test system is M. marseiliense. In words: microbe, parasite or virus in culture. In kind it is cell-based. Conditions: Mycobacterium.
Data set [31] relates to M. bolletii. The experiment in a line: microbe, parasite or virus in culture. The class given is cell-based, Mycobacterium bolletii. Conditions: Mycobacteroides abscessus.
In data set [32] the test system is M. gilvum. In words: microbe, parasite or virus in culture. Conditions: Mycolicibacterium gilvum. In kind it is cell-based, Mycobacterium gilvum.
The test system of data set [33] is M. kyorinense. In words: microbe, parasite or virus in culture. In kind it is cell-based. Conditions: Mycobacterium kyorinense.

`CCCCOc1ccc(/C=C(/C(=O)O)c2ccc(OC)c(OC)c2)cc1` [DPGA8]: the MIC in data set [1] and in data set [2] was more than 100 µg/mL throughout. In addition, in [2], the “SI (CC50/MIC)” value is reported as less than 0.9. Further, the CC50 in [3] is 89.5 µg/mL (≈ 251 µM); in [4], more than 100 µg/mL.

Take `CCCCOc1ccc(/C=C(/C(=O)OC)c2ccc(OC)c(OC)c2)cc1` [DPGA9]: the MIC in data set [1] and in [2] was 25 µg/mL (≈ 67.5 µM) in each case. For the same compound, the “SI (CC50/MIC)” value in data set [2] is reported as more than 4.0. The CC50 in data set [3] and in data set [4] was more than 100 µg/mL each time.

For the compound `COc1ccc2c3c(c4cc(OC)c(OC)cc4c2c1)CN1CCC[C@H]1C3` [DPG, deoxypergularinine], the CC50 in data set [5] was 18.7 µg/mL (≈ 51.5 µM).

`COC(=O)/C(=C/c1ccc(OCc2ccccc2)cc1)c1ccc(OC)c(OC)c1` [DPGA3]: the MIC in data set [1] and in [2] was 3.1 µg/mL (≈ 7.66 µM) each time. For the same compound, in [2], the “SI (CC50/MIC)” value is listed as more than 32.2. The CC50 in [3] and in data set [4] was more than 100 µg/mL throughout.

As to `NC(=O)c1cnccn1` [PZA, pyrazinamide], the MIC in data set [6], in data set [7], in data set [8], in data set [9], in [10] and in data set [11] was more than 100 µg/mL each time. For the same compound, the MIC in data set [12], in [13], in [14], in data set [14] (TDR-1), in [14] (TDR-2) and in data set [14] (TDR-3) was more than 100 µg/mL each time. The MIC in data set [15], in [16], in data set [17], in data set [18], in data set [19] and in data set [20] was more than 100 µg/mL in each case. For the same compound, the MIC in data set [21] is more than 100 µg/mL; in data set [22], more than 100 µg/mL; in [23] it was more than 100 µg/mL; in [24] it was more than 100 µg/mL; in data set [25] it was more than 100 µg/mL; in data set [2] (Mycobacterium tuberculosis, H37RV, read-out: MIC), more than 100 µg/mL. For the same compound, the MIC in data set [26], in data set [27], in [28], in data set [29], in [30] and in data set [31] was more than 100 µg/mL throughout. Also, the MIC in [32] and in [33] was more than 100 µg/mL in each case.

On to `COc1ccc(/C(=C\c2ccc(OCc3ccccc3)cc2)C(=O)O)cc1OC` [DPGA2], for which the MIC in data set [1] is 100 µg/mL (≈ 256 µM); in [2], more than 100 µg/mL. Moreover, the CC50 in data set [3] and in data set [4] was more than 100 µg/mL each time.

One may read the CC50 as the concentration that lowers cell viability or growth by half.
